Experimental data from patent publication US10800792B2, “Inhibitors of Bruton's tyrosine kinase and method of their use” (JANSSEN PHARMACEUTICA NV, priority 2015, dated 2020).

The molecules below were run against unphosphorylated-BTK kinase domain (UP-BTK), GST-tagged human BTK (389-659aa) (Homo sapiens (Human), UniProt Q06187) (assay: BTK kinase Lanthascreen binding assay). Conditions: Lanthascreen tracer competition, 60 minutes incubation; pIC50 = negative log of the IC50 in molar.
In short: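 A fluorescent tracer is bound to unphosphorylated BTK; test compound is added to compete it off; the Lanthascreen signal is read and IC50 is fitted, then reported as its negative log in molar.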

Chain of unphosphorylated-BTK kinase domain (UP-BTK), GST-tagged human BTK (389-659aa) (Q06187 389-659): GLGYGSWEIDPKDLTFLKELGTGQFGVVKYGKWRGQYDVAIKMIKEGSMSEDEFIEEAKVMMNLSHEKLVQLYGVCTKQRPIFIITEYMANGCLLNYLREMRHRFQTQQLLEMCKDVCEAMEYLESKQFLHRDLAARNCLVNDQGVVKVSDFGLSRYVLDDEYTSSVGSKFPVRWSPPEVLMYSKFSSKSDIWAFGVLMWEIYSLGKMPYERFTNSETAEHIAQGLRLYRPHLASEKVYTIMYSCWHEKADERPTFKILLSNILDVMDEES

SMILES	BTK_I_binding pIC50
Cc1cnc(-c2ccccc2)cc1N1C(=O)Nc2c(C(=O)N[C@@H]3CCCNC3)sc3nccc1c23 [Example 729, (R)-5-(5-Methyl-2-phenylpyridin-4-yl)-4-oxo-N-(piperidin-3-yl)-4,5-dihydro-3H-1-thia-3,5,8-triazaacenaphthylene-2-carboxamide]	<6
C=CC(=O)N1CCC[C@H](NC(=O)c2sc3nccc4c3c2NC(=O)N4c2ccc(Oc3ccccc3)cc2C)C1 [Example 863, (S)—N-(1-Acryloylpiperidin-3-yl)-5-(2-methyl-4-phenoxyphenyl)-4-oxo-4,5-dihydro-3H-1-thia-3,5,8-triazaacenaphthylene-2-carboxamide]	7.3
Cc1cc(Oc2ccccc2)ccc1N1C(=O)Nc2c(NC(=O)C3CCCN(C(=O)CC#N)C3)sc3nccc1c23 (centres unmarked) [Example 817, 1-(2-Cyanoacetyl)-N-(5-(2-methyl-4-phenoxyphenyl)-4-oxo-4,5-dihydro-3H-1-thia-3,5,8-triazaacenaphthylen-2-yl)piperidine-3-carboxamide]	6.0
COCCC(=O)N1CCC[C@@H](NC(=O)c2sc3nccc4c3c2NC(=O)N4c2ccc(Oc3ccccc3)cc2)C1 [Example 593, (R)—N-(1-(3-Methoxypropanoyl)piperidin-3-yl)-4-oxo-5-(4-phenoxyphenyl)-4,5-dihydro-3H-1-thia-3,5,8-triazaacenaphthylene-2-carboxamide]	7.2
O=C(N[C@@H]1CCCNC1)c1sc2nccc3c2c1NC(=O)N3c1ccc(OC2CCC2)nc1 [Example 744, (R)-5-(6-Cyclobutoxypyridin-3-yl)-4-oxo-N-(piperidin-3-yl)-4,5-dihydro-3H-1-thia-3,5,8-triazaacenaphthylene-2-carboxamide]	5.7

Same assay, conditions: Lanthascreen tracer competition, 60 minutes incubation; pIC50 = negative log of the IC50 in molar; read-out: BTK_I_binding pIC50 (converted)

SMILES	IC50 [nM]
O=C(N[C@@H]1CCCNC1)c1sc2nccc3c2c1NC(=O)N3c1cc(-c2ccccc2)ncn1 [Example 723, (R)-4-Oxo-5-(6-phenylpyrimidin-4-yl)-N-(piperidin-3-yl)-4,5-dihydro-3H-1-thia-3,5,8-triazaacenaphthylene-2-carboxamide]	794

Same assay, conditions: pIC50 = negative log of the IC50 in molar; 60 minutes incubation, 50 nM Tracer 236

SMILES	BTK_I_binding pIC50
CCOc1ccc(N2C(=O)Nc3c(C(=O)N[C@@H]4CCCN(C(=O)/C(C#N)=C/C5CC5)C4)sc4nccc2c34)c(C)c1 [Example 193, (R,E)-N-(1-(2-Cyano-3-cyclopropylacryloyl)piperidin-3-yl)-5-(4-ethoxy-2-methylphenyl)-4-oxo-4,5-dihydro-3H-1-thia-3,5,8-triazaacenaphthylene-2-carboxamide]	7.3
CO[C@H]1CNC[C@@H]1NC(=O)c1sc2nccc3c2c1NC(=O)N3c1ccc(Oc2ccccc2)cc1C [Example 245, N-((3S,4S)-4-Methoxypyrrolidin-3-yl)-5-(2-methyl-4-phenoxyphenyl)-4-oxo-4,5-dihydro-3H-1-thia-3,5,8-triazaacenaphthylene-2-carboxamide]	6.6
CC(C)=C(Cl)C(=O)N1CCC[C@@H](NC(=O)c2sc3nccc4c3c2NC(=O)N4c2ccc(Oc3ccccc3)cc2C)C1 [Example 260, (R)—N-(1-(2-chloro-3-methylbut-2-enoyl)piperidin-3-yl)-5-(2-methyl-4-phenoxyphenyl)-4-oxo-4,5-dihydro-3H-1-thia-3,5,8-triazaacenaphthylene-2-carboxamide]	6.5
C=CC(=O)N1C[C@@H](F)[C@@H](NC(=O)c2sc3nccc4c3c2NC(=O)N4c2ccc(Oc3ccccc3)cc2C)C1 [Example 37, N-((3S,4R)-1-Acryloyl-4-fluoropyrrolidin-3-yl)-5-(2-methyl-4-phenoxyphenyl)-4-oxo-4,5-dihydro-3H-1-thia-3,5,8-triazaacenaphthylene-2-carboxamide]	7.6
Cc1ccccc1Oc1ccc(N2C(=O)Nc3c(C(=O)N[C@@H]4CCCN(C)C4)sc4nccc2c34)c(C)c1 [Example 148, (R)-5-(2-Methyl-4-(o-tolyloxy)phenyl)-N-(1-methylpiperidin-3-yl)-4-oxo-4,5-dihydro-3H-1-thia-3,5,8-triazaacenaphthylene-2-carboxamide]	6.9
Cc1cc(Oc2ccccc2)cc(F)c1N1C(=O)Nc2c(C(=O)N[C@@H]3CCCN(C)C3)sc3nccc1c23 [Example 222, (R)-5-(2-Fluoro-6-methyl-4-phenoxyphenyl)-N-(1-methylpiperidin-3-yl)-4-oxo-4,5-dihydro-3H-1-thia-3,5,8-triazaacenaphthylene-2-carboxamide]	6.7
C=CC(=O)N1CC[C@@H](NC(=O)c2sc3nccc4c3c2NC(=O)N4c2ccc(OC3CCCCC3)cc2C)C1 [Example 39, (R)—N-(1-Acryloylpyrrolidin-3-yl)-5-(4-(cyclohexyloxy)-2-methylphenyl)-4-oxo-4,5-dihydro-3H-1-thia-3,5,8-triazaacenaphthylene-2-carboxamide]	7.4
C/C=C/C(=O)N1CCC[C@@H](NC(=O)c2sc3nccc4c3c2NC(=O)N4c2ccc(Oc3ccccc3)cc2C)C1 (single isomer, unassigned) [Example 100, (R,E)-N-(1-(But-2-enoyl)piperidin-3-yl)-5-(*S)-(2-methyl-4-phenoxyphenyl)-4-oxo-4,5-dihydro-3H-1-thia-3,5,8-triazaacenaphthylene-2-carboxamide]	7.1

Same assay, conditions: unphosphorylated-BTK kinase domain, 50 nM Tracer 236, 60 minutes; pIC50 = negative log of the IC50 in molar

SMILES	BTK_I_binding pIC50
C=CC(=O)N1C[C@H](O)C[C@@H](NC(=O)c2sc3nccc4c3c2NC(=O)N4c2ccc(OC(C)C)cc2C)C1 [Example 557, N-((3R,5R)-1-Acryloyl-5-hydroxypiperidin-3-yl)-5-(4-isopropoxy-2-methylphenyl)-4-oxo-4,5-dihydro-3H-1-thia-3,5,8-triazaacenaphthylene-2-carboxamide]	7.3
O=C(N[C@@H]1CCCNC1)c1sc2nccc3c2c1NC(=O)N3c1ccn(Cc2ccccc2)n1 [Example 431, (R)-5-(1-Benzyl-1H-pyrazol-3-yl)-4-oxo-N-(piperidin-3-yl)-4,5-dihydro-3H-1-thia-3,5,8-triazaacenaphthylene-2-carboxamide]	<5
Cc1cc(OC(C)C)ccc1N1C(=O)Nc2c(C(=O)N[C@@H]3CCN(C(=O)/C=C/CN(C)C)C3)sc3nccc1c23 [Example 562, (R,E)-N-(1-(4-(Dimethylamino)but-2-enoyl)pyrrolidin-3-yl)-5-(4-isopropoxy-2-methylphenyl)-4-oxo-4,5-dihydro-3H-1-thia-3,5,8-triazaacenaphthylene-2-carboxamide]	6.7
O=C(N[C@@H]1CCCNC1)c1sc2nccc3c2c1NC(=O)N3c1cccc(Oc2ccccc2)c1 [Example 466, (R)-4-Oxo-5-(3-phenoxyphenyl)-N-(piperidin-3-yl)-4,5-dihydro-3H-1-thia-3,5,8-triazaacenaphthylene-2-carboxamide]	6.7
O=C(N[C@@H]1CCCNC1)c1sc2nccc3c2c1NC(=O)N3c1ccc(-c2cccs2)cc1 [Example 407, (R)-4-Oxo-N-(piperidin-3-yl)-5-(4-(thiophen-2-yl)phenyl)-4,5-dihydro-3H-1-thia-3,5,8-triazaacenaphthylene-2-carboxamide]	5.1

Same assay, conditions: unphosphorylated-BTK kinase domain, 60 minutes incubation, 50 nM Tracer 236; pIC50 = negative log of the IC50 in molar

SMILES	BTK_I_binding pIC50
O=C(N[C@@H]1CCCNC1)c1sc2nccc3c2c1NC(=O)N3c1ccc(Oc2ccccc2)cn1 [Example 915, (R)-4-Oxo-5-(5-phenoxypyridin-2-yl)-N-(piperidin-3-yl)-4,5-dihydro-3H-1-thia-3,5,8-triazaacenaphthylene-2-carboxamide]	6.5
